Test results from patent US20260297085A1, “1 H-PYRROLO[2,3-B]PYRIDIN-4-YL]-2-OXOPYRROLIDINE-3-CARBONITRILE DERIVATIVES AS TYROSINE KINASE 2 (TYK2) INHIBITORS FOR THE TREATMENT OF INFLAMMATORY DISEASES” (BIOGEN MA INC., priority 2023, published 2026).
Where a name gives a salt, the structure may show the parent alone.

Legend:
[1] = target: T1, human TYK2 kinase domain (JH1) (Homo sapiens, UniProt P29597); assay: JH1 biochemical assay for TYK2 (ADP-Glo kinase assay, recombinant JH1 catalytic domain, JAK3-974 peptide, 10 μM ATP)
T1 construct: recombinantly generated catalytic kinase (also known as JH1) domain of human JAK1, JAK2, JAK3 and TYK2
T1 sequence (P29597 897-1176 limits assumed): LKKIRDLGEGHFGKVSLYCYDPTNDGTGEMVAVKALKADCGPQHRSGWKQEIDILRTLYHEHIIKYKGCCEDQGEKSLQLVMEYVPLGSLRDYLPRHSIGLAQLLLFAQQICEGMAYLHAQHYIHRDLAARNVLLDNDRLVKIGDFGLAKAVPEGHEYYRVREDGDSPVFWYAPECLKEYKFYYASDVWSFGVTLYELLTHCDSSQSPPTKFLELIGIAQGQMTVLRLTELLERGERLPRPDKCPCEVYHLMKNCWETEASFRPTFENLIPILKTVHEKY
Procedure, shortened: (§1)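 Compounds were titrated in 11 points of 3-fold dilution starting at 10 μM or 1 μM. Enzyme (JAK1 4 nM, JAK2 0.2 nM, JAK3 0.3 nM, TYK2 2 nM) and 50 μM peptide reacted for 100 minutes, followed by ADP-to-luminescence detection; IC50 by 4-parameter fit.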

[2] = target: T2, human JAK1 kinase domain (JH1) (Homo sapiens, UniProt P23458); assay: JH1 biochemical assay for JAK1 (ADP-Glo kinase assay, recombinant JH1 catalytic domain, JAK3-342 peptide, 35 μM ATP)
T2 construct: recombinantly generated catalytic kinase (also known as JH1) domain of human JAK1, JAK2, JAK3 and TYK2
Procedure, shortened: as §1

[3] = target: T3, human JAK2 kinase domain (JH1) (Homo sapiens, UniProt O60674); assay: JH1 biochemical assay for JAK2 (ADP-Glo kinase assay, recombinant JH1 catalytic domain, JAK3-974 peptide, 15 μM ATP)
T3 construct: recombinantly generated catalytic kinase (also known as JH1) domain of human JAK1, JAK2, JAK3 and TYK2
Procedure, shortened: as §1

[4] = target: T4, human JAK3 kinase domain (JH1) (Homo sapiens, UniProt P52333); assay: JH1 biochemical assay for JAK3 (ADP-Glo kinase assay, recombinant JH1 catalytic domain, JAK3-974 peptide, 4 μM ATP)
T4 construct: recombinantly generated catalytic kinase (also known as JH1) domain of human JAK1, JAK2, JAK3 and TYK2
Procedure, shortened: as §1

[5] = target: Tyk2 kinase activity on STAT4 in NK92 cells (Homo sapiens, UniProt P29597); assay: pSTAT4 cell assay (MSD; NK92 cells, 30 ng/mL IL2 stimulation); type: cell-based; settings: 30 ng/mL IL2, 15 minutes
Procedure, shortened: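 NK92, serum-starved; cpd 1 hr, 10-pt 4-fold from 10 μM; IL2 30 ng/mL 15 min; lyse; MSD with anti-STAT4 Abs; IC50 by 4-PL fit.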

[6] = target: JAK2 kinase activity on STAT5 in TF1 cells (Homo sapiens, UniProt O60674); assay: pSTAT5 cell assay (MSD; TF1 cells, 30 ng/mL IL-3 stimulation); type: cell-based; settings: 30 ng/mL IL-3, 15 minutes
Protocol: The inhibitory potency of compounds of the disclosure against the JAK2 kinase activity on STAT5 was evaluated using an MSD-platform plate-based assay format. TF1 cells natively expressing STAT5 and JAK2 were serum-starved to reduce background phosphorylation levels, then cells were treated with compounds of disclosure for 1 hour with a 10-point four-fold dilution series starting at 10 μM. Cells were then stimulated with 30 ng/mL IL-3 for 15 minutes. Cells were then lysed and pSTAT5 levels were quantitated using an MSD plate-based assay with anti-STAT5 antibodies. The data were normalized and the percent activity versus log concentration of compound was fitted with a 4-parameter logistic model to generate a curve and an IC50 value.

[7] = target: JAK1 kinase activity on STAT3 in TF1 cells (Homo sapiens, UniProt P23458); assay: pSTAT3 cell assay (MSD; TF1 cells, 30 ng/mL IL-6 stimulation); type: cell-based; settings: 30 ng/mL IL-6, 15 minutes
Protocol: The inhibitory potency of compounds of the disclosure against the JAK1 kinase activity on STAT3 was evaluated using an MSD-platform plate-based assay format. TF1 cells natively expressing STAT3 and JAK1 were serum-starved to reduce background phosphorylation levels, then cells were treated with compounds of the disclosure for 1 hour with a 10-point four-fold dilution series starting at 10 μM. Cells were then stimulated with 30 ng/mL interleukin 6 (IL-6) for 15 minutes. Cells were lysed and pSTAT3 levels were quantitated using an MSD plate-based assay with anti-STAT3 antibodies. The data were normalized and the percent activity versus log concentration of compound was fitted with a 4-parameter logistic model to generate IC50 curves.

JAK2 kinase activity on STAT5 in TF1 cells, sequence (O60674 whole entry): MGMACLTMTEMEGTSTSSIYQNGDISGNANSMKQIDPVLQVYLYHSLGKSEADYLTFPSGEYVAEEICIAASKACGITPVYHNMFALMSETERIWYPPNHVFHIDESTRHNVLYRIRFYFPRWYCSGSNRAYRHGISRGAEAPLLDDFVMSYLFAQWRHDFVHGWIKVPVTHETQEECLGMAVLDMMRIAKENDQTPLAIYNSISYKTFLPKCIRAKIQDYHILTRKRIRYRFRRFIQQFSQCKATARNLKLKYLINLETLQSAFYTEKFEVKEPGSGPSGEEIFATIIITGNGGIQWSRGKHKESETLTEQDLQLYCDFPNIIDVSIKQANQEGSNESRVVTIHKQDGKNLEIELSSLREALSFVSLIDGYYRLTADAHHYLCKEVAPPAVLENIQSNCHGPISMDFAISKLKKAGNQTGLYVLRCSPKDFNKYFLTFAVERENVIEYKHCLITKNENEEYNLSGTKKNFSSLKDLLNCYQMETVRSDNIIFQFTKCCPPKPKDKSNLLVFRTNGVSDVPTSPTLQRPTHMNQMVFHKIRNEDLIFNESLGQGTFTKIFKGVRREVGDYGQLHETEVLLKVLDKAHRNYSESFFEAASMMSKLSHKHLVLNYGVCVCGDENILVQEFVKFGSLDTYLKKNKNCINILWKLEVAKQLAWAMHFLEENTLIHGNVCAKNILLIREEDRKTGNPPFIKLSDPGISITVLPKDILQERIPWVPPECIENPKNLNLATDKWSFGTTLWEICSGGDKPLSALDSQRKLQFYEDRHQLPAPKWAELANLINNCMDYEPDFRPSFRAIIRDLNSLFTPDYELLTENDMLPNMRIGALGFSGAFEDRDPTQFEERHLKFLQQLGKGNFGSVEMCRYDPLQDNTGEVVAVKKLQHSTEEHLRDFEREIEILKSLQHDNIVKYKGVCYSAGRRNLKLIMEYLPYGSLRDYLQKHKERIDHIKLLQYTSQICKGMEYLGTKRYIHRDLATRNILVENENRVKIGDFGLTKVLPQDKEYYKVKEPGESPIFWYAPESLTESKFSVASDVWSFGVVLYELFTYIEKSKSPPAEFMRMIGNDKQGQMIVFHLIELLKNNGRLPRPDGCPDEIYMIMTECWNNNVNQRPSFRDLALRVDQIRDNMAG
JAK1 kinase activity on STAT3 in TF1 cells, sequence (P23458 whole entry): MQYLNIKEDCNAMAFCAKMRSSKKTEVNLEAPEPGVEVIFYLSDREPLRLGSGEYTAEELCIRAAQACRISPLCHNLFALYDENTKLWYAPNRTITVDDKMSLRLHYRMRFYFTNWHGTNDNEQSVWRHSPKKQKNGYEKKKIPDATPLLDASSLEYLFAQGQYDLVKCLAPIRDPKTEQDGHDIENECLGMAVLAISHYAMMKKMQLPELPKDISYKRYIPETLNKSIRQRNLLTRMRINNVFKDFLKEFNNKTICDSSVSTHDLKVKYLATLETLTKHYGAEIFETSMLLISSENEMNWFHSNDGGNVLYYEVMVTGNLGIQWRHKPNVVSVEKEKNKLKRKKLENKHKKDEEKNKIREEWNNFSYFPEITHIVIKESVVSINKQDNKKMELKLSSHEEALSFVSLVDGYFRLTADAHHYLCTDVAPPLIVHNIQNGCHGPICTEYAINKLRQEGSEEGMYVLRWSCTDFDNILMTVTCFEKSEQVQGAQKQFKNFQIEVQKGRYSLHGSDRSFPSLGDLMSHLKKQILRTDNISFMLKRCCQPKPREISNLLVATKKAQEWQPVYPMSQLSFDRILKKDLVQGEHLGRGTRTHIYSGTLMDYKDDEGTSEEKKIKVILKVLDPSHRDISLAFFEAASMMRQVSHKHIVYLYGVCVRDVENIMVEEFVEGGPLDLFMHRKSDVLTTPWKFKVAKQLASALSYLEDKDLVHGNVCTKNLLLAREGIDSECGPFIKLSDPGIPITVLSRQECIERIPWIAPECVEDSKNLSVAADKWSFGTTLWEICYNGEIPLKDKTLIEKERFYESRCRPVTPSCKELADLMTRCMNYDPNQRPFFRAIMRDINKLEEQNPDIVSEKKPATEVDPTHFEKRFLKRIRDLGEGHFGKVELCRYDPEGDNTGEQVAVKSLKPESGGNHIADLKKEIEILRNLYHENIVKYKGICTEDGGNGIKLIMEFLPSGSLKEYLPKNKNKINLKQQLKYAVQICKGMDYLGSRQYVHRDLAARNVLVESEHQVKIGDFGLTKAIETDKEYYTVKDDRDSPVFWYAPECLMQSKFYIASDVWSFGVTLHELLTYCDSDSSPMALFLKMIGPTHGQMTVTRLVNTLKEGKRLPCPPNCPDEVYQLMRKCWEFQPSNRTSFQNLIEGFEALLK
T3 sequence (O60674 849-1124 limits assumed): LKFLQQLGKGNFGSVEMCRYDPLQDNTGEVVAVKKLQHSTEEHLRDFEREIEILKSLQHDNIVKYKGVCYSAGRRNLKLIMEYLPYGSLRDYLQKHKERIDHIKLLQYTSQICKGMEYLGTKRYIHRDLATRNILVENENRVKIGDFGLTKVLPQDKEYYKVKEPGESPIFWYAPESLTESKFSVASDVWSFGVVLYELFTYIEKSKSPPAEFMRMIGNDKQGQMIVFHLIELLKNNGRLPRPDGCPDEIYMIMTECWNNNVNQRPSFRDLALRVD
Tyk2 kinase activity on STAT4 in NK92 cells, sequence (P29597 whole entry): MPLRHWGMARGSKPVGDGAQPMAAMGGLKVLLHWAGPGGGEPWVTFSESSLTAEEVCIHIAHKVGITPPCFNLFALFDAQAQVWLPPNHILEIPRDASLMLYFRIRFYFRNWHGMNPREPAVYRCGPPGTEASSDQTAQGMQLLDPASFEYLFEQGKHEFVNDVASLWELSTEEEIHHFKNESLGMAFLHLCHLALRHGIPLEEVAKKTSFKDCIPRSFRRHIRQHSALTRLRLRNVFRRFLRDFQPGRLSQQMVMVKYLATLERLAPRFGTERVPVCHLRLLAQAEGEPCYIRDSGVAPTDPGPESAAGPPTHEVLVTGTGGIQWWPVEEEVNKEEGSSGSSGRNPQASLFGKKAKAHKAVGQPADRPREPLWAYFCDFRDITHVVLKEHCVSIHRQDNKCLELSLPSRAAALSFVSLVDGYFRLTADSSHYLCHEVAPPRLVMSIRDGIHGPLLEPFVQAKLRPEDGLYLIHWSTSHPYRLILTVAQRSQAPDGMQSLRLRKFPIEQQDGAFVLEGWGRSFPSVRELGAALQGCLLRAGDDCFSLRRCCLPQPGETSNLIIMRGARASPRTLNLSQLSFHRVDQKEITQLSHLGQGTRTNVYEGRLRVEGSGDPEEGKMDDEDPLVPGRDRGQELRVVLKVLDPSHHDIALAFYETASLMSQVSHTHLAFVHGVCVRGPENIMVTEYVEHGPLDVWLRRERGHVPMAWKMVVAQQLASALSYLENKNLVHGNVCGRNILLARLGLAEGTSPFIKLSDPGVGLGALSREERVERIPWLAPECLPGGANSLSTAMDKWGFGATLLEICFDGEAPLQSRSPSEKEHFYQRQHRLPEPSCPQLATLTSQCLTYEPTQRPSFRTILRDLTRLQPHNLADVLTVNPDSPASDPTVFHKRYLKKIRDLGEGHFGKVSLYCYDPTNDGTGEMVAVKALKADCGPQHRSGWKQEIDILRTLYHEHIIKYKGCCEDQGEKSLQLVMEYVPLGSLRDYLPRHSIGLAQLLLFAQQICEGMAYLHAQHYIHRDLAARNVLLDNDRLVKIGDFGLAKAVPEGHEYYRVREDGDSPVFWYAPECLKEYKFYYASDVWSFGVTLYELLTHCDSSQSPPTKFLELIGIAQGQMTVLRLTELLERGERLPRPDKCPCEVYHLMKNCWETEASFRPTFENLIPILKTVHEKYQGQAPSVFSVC
T2 sequence (P23458 875-1153 limits assumed): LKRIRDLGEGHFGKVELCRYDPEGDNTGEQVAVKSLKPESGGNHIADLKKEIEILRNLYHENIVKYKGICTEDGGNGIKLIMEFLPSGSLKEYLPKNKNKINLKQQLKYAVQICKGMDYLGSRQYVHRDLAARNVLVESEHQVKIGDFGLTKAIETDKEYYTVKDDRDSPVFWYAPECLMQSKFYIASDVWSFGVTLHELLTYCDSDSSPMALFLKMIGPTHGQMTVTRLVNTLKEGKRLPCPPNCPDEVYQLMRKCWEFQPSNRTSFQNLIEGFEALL
T4 sequence (P52333 822-1111 limits assumed): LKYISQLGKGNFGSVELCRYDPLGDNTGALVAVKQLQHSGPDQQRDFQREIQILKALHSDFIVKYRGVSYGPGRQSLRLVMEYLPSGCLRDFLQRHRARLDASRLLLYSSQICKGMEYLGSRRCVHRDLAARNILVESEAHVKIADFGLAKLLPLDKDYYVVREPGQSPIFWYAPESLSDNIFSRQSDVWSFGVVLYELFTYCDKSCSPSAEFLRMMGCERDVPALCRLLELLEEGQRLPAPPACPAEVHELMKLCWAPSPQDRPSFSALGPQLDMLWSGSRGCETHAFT

## C[C@@H]1CN(c2nc(-c3cncc(O)c3)cn3nccc23)C(=O)[C@]1(C#N)C1CC1 [Example 258, (3R,4S)-3-cyclopropyl-1-(6-(5-hydroxypyridin-3-yl)pyrazolo[1,5-a]pyrazin-4-yl)-4-methyl-2-oxopyrrolidine-3-carbonitrile trifluoroacetate]
[1]; TYK2 JH1, ADP-Glo
  IC50: 5 to 20 nM
[2]; JAK1 JH1, ADP-Glo
  IC50: < 100 nM
[3]; JAK2 JH1, ADP-Glo
  IC50: 100 to 1000 nM
[4]; JAK3 JH1, ADP-Glo
  IC50: < 100 nM
[5]
  IC50: > 100 nM
[6]
  IC50: > 10000 nM
[7]
  IC50: 1000 to 5000 nM

## C[C@@H]1CN(c2nc(-c3ccnc(C(F)(F)F)c3)cn3nccc23)C(=O)[C@]1(C#N)C1CC1 [Example 234, (3R,4S)-3-cyclopropyl-4-methyl-2-oxo-1-(6-(2-(trifluoromethyl)pyridin-4-yl)pyrazolo[1,5-a]pyrazin-4-yl)pyrrolidine-3-carbonitrile trifluoroacetate]
[1]; TYK2 JH1, ADP-Glo
  IC50: 5 to 20 nM
[2]; JAK1 JH1, ADP-Glo
  IC50: 100 to 1000 nM
[3]; JAK2 JH1, ADP-Glo
  IC50: 100 to 1000 nM
[4]; JAK3 JH1, ADP-Glo
  IC50: 100 to 1000 nM
[5]
  IC50: > 100 nM
[6]
  IC50: > 10000 nM
[7]
  IC50: > 10000 nM

## C[C@@H]1CN(c2ccnn3cc(-c4cnn([C@H]5C[C@@H](C#N)C5)c4)cc23)C(=O)[C@]1(C#N)C1CC1 [Example 329, (3R,4S)-1-(6-(1-((1s,3S)-3-cyanocyclobutyl)-1H-pyrazol-4-yl)pyrrolo[1,2-b]pyridazin-4-yl)-3-cyclopropyl-4-methyl-2-oxopyrrolidine-3-carbonitrile]
[1]; TYK2 JH1, ADP-Glo
  IC50: < 5 nM
[2]; JAK1 JH1, ADP-Glo
  IC50: < 100 nM
[3]; JAK2 JH1, ADP-Glo
  IC50: < 100 nM
[4]; JAK3 JH1, ADP-Glo
  IC50: < 100 nM
[5]
  IC50: 20 to 50 nM
[6]
  IC50: 100 to 1000 nM
[7]
  IC50: 100 to 1000 nM

## Cc1cc(-c2cc3c(N4C[C@@H](C)[C@@](C#N)(C5CC5)C4=O)ccnn3c2)ccn1 [Example 77, (3R,4S)-3-cyclopropyl-4-methyl-1-(6-(2-methylpyridin-4-yl)pyrrolo[1,2-b]pyridazin-4-yl)-2-oxopyrrolidine-3-carbonitrile]
[1]; JH1 kinase domain, ADP-Glo
  IC50: < 5 nM
[2]; JH1 kinase domain, ADP-Glo
  IC50: < 100 nM
[3]; JH1 kinase domain, ADP-Glo
  IC50: 100 to 1000 nM
[4]; JH1 kinase domain, ADP-Glo
  IC50: 100 to 1000 nM
[5]
  IC50: 50 to 100 nM
[6]
  IC50: 1000 to 5000 nM
[7]
  IC50: 100 to 1000 nM

## Cn1cc(-c2cc3c(N4CC[C@@](C#N)(C5CC5)C4=O)ccnn3c2)c(F)n1 [Example 12, (S)-3-cyclopropyl-1-(6-(3-fluoro-1-methyl-1H-pyrazol-4-yl)pyrrolo[1,2-b]pyridazin-4-yl)-2-oxopyrrolidine-3-carbonitrile]
[1]; JH1 kinase domain, ADP-Glo
  IC50: 5 to 20 nM
[2]; JH1 kinase domain, ADP-Glo
  IC50: 100 to 1000 nM
[3]; JH1 kinase domain, ADP-Glo
  IC50: 100 to 1000 nM
[4]; JH1 kinase domain, ADP-Glo
  IC50: 100 to 1000 nM
[5]
  IC50: > 100 nM
[6]
  IC50: > 10000 nM
[7]
  IC50: 1000 to 5000 nM

## C[C@@H]1CN(c2ccnn3cc(-c4ccc(C(F)(F)F)nc4)cc23)C(=O)[C@]1(C#N)C1CC1 [Example 74, (3R,4S)-3-cyclopropyl-4-methyl-2-oxo-1-(6-(6-(trifluoromethyl)pyridin-3-yl)pyrrolo[1,2-b]pyridazin-4-yl)pyrrolidine-3-carbonitrile]
[1]; JH1 kinase domain, ADP-Glo
  IC50: 5 to 20 nM
[2]; JH1 kinase domain, ADP-Glo
  IC50: 100 to 1000 nM
[3]; JH1 kinase domain, ADP-Glo
  IC50: 1000 to 5000 nM
[4]; JH1 kinase domain, ADP-Glo
  IC50: 100 to 1000 nM
[5]
  IC50: > 100 nM
[6]
  IC50: > 10000 nM
[7]
  IC50: 5000 to 10000 nM

## CNC(=O)c1ccc(-c2cc3c(N4C[C@@H](C)[C@@](C#N)(C5CC5)C4=O)ccnn3c2)cn1 [Example 58, 5-(4-((3R,4S)-3-cyano-3-cyclopropyl-4-methyl-2-oxopyrrolidin-1-yl)pyrrolo[1,2-b]pyridazin-6-yl)-N-methylpicolinamide]
[1]; JH1 kinase domain, ADP-Glo
  IC50: 5 to 20 nM
[2]; JH1 kinase domain, ADP-Glo
  IC50: 100 to 1000 nM
[3]; JH1 kinase domain, ADP-Glo
  IC50: 100 to 1000 nM
[4]; JH1 kinase domain, ADP-Glo
  IC50: 100 to 1000 nM
[5]
  IC50: 50 to 100 nM
[6]
  IC50: > 10000 nM
[7]
  IC50: 1000 to 5000 nM

## C[C@@H]1CN(c2ccnn3cc(-c4cnn(C5CC6(COC6)C5)c4)cc23)C(=O)[C@]1(C#N)C1CC1 [Example 319, (3R,4S)-1-(6-(1-(2-oxaspiro[3.3]heptan-6-yl)-1H-pyrazol-4-yl)pyrrolo[1,2-b]pyridazin-4-yl)-3-cyclopropyl-4-methyl-2-oxopyrrolidine-3-carbonitrile]
[1]; TYK2 JH1, ADP-Glo
  IC50: < 5 nM
[2]; JAK1 JH1, ADP-Glo
  IC50: < 100 nM
[3]; JAK2 JH1, ADP-Glo
  IC50: < 100 nM
[4]; JAK3 JH1, ADP-Glo
  IC50: < 100 nM
[5]
  IC50: 20 to 50 nM
[6]
  IC50: 100 to 1000 nM
[7]
  IC50: 100 to 1000 nM

## C[C@@H]1CN(c2ccnn3cc(-c4cn(C)nn4)cc23)C(=O)[C@]1(C#N)C1CC1 [Example 112, (3R,4S)-3-cyclopropyl-4-methyl-1-(6-(1-methyl-1H-1,2,3-triazol-4-yl)pyrrolo[1,2-b]pyridazin-4-yl)-2-oxopyrrolidine-3-carbonitrile trifluoroacetate]
[1]; JH1 kinase domain, ADP-Glo
  IC50: 5 to 20 nM
[2]; JH1 kinase domain, ADP-Glo
  IC50: 100 to 1000 nM
[3]; JH1 kinase domain, ADP-Glo
  IC50: 100 to 1000 nM
[4]; JH1 kinase domain, ADP-Glo
  IC50: 100 to 1000 nM
[5]
  IC50: > 100 nM
[6]
  IC50: > 10000 nM
[7]
  IC50: > 10000 nM

## C[C@@H]1CN(c2ccnn3cc(-c4ccc5cncn5c4)cc23)C(=O)[C@]1(C#N)C1CC1 [Example 51, (3R,4S)-3-cyclopropyl-1-(6-(imidazo[1,5-a]pyridin-6-yl)pyrrolo[1,2-b]pyridazin-4-yl)-4-methyl-2-oxopyrrolidine-3-carbonitrile]
[1]; JH1 kinase domain, ADP-Glo
  IC50: 5 to 20 nM
[2]; JH1 kinase domain, ADP-Glo
  IC50: < 100 nM
[3]; JH1 kinase domain, ADP-Glo
  IC50: 100 to 1000 nM
[4]; JH1 kinase domain, ADP-Glo
  IC50: 100 to 1000 nM
[5]
  IC50: 50 to 100 nM
[6]
  IC50: > 10000 nM
[7]
  IC50: 1000 to 5000 nM

## C[C@@H]1CN(c2nc(-c3cnn([C@H]4C[C@@](C)(C#N)C4)c3)cn3ncc(F)c23)C(=O)[C@]1(C#N)C1CC1 [Example 307, (3R,4S)-1-(6-(1-((1s,3S)-3-cyano-3-methylcyclobutyl)-1H-pyrazol-4-yl)-3-fluoropyrazolo[1,5-a]pyrazin-4-yl)-3-cyclopropyl-4-methyl-2-oxopyrrolidine-3-carbonitrile]
[1]; TYK2 JH1, ADP-Glo
  IC50: < 5 nM
[2]; JAK1 JH1, ADP-Glo
  IC50: < 100 nM
[3]; JAK2 JH1, ADP-Glo
  IC50: < 100 nM
[4]; JAK3 JH1, ADP-Glo
  IC50: < 100 nM
[5]
  IC50: 50 to 100 nM
[6]
  IC50: 1000 to 5000 nM
[7]
  IC50: 100 to 1000 nM

## C[C@@H]1CN(c2nc(-c3ccc(C#N)nc3)cn3nccc23)C(=O)[C@]1(C#N)C1CC1 [Example 195, 5-(4-((3R,4S)-3-cyano-3-cyclopropyl-4-methyl-2-oxopyrrolidin-1-yl)pyrazolo[1,5-a]pyrazin-6-yl)picolinonitrile]
[1]; JH1 kinase domain, ADP-Glo
  IC50: 5 to 20 nM
[2]; JH1 kinase domain, ADP-Glo
  IC50: < 100 nM
[3]; JH1 kinase domain, ADP-Glo
  IC50: 100 to 1000 nM
[4]; JH1 kinase domain, ADP-Glo
  IC50: < 100 nM
[5]
  IC50: > 100 nM
[6]
  IC50: > 10000 nM
[7]
  IC50: 1000 to 5000 nM
